Data set [1] addresses Serotonin (5-Hydroxytryptamine) 5-HT3 (Homo sapiens, UniProt P46098). The following applies: cited from earlier work.
In data set [2] the target is Transporter, Dopamine (DAT) (Homo sapiens, UniProt Q01959). The following applies: cited from earlier work.
The conditions of data set [3]: cited from earlier work.
Data set [4] concerns the target Serotonin (5-Hydroxytryptamine) 5-HT2B (Homo sapiens, UniProt P41595). Particulars: cited from earlier work.
Data set [5] concerns the target T1, Muscarinic M1 (Homo sapiens, UniProt P11229).
T1 construct: host or cells: CHO-K1 cells
Description: Radioligand binding 252610. Particulars: read-out: IC50 Concurrent.

In data set [6] the target is T1, Muscarinic M1. Particulars: cited from earlier work.
A further data set deals with T2, Muscarinic M2 (Homo sapiens, UniProt P08172).
T2 construct: host or cells: CHO-K1 cells
Particulars: cited from earlier work.

A further data set addresses Muscarinic M3 (Homo sapiens, UniProt P20309). The following applies: cited from earlier work.
A further data set has as its target T3, Melatonin MT1 (Homo sapiens, UniProt P48039).
T3 construct: host or cells: CHO-K1 cells
Particulars: cited from earlier work.

For data set [7] the following is noted: assay standard, general statement; cited from earlier work.
A further data set concerns the target Opiate δ1 (OP1, DOP) (Homo sapiens, UniProt P41143). The following applies: cited from earlier work.

Like-named read-outs stand apart in the source and are kept apart here.

T1 sequence (P11229 whole entry): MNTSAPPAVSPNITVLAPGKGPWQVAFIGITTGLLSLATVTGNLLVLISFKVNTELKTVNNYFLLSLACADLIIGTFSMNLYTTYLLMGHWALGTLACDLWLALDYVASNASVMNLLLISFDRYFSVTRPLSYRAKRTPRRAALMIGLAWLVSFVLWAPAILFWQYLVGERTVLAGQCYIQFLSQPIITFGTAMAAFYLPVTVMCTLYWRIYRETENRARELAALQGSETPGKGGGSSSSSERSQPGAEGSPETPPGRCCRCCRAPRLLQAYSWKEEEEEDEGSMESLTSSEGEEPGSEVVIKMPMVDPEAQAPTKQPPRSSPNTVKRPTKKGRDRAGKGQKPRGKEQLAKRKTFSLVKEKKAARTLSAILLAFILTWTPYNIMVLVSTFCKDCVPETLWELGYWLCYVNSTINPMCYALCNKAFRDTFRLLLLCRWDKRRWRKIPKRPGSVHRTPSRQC
Sequence of Opiate δ1 (OP1, DOP) (P41143 whole entry): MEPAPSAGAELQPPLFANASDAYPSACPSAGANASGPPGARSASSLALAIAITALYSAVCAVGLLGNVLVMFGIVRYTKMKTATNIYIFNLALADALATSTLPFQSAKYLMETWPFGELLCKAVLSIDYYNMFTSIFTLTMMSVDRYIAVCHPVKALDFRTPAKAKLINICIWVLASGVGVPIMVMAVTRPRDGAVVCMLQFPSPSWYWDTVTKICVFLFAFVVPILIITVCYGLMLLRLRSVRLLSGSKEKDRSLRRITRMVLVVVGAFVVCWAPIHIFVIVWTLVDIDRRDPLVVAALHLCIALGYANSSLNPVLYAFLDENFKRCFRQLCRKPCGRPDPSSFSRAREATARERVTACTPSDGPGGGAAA
Sequence of Transporter, Dopamine (DAT) (Q01959 whole entry): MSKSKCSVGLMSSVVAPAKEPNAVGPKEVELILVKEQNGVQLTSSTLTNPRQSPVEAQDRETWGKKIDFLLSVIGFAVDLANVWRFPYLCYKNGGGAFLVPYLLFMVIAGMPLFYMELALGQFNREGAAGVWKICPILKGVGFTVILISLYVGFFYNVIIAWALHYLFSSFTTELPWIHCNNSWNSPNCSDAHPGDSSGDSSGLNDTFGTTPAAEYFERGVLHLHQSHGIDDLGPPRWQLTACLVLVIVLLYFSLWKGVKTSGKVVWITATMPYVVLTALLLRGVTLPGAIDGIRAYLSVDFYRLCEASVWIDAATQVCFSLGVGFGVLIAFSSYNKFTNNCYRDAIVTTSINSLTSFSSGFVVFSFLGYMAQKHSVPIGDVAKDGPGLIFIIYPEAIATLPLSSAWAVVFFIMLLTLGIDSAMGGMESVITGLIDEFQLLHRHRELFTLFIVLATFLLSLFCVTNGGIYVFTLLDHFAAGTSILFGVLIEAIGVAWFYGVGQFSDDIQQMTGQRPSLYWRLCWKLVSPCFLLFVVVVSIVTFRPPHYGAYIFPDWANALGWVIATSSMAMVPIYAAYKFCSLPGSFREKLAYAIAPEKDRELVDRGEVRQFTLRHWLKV
T3 sequence (P48039 whole entry): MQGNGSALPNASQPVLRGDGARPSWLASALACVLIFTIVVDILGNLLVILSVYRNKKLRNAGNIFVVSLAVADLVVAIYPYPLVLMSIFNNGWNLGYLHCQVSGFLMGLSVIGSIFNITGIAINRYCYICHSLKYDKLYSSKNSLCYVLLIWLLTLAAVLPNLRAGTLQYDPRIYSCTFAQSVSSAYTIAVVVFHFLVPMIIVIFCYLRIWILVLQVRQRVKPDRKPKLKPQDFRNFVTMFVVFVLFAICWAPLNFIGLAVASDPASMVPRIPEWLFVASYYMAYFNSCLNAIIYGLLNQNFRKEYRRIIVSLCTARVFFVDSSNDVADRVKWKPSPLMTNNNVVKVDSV
Sequence of Serotonin (5-Hydroxytryptamine) 5-HT3 (P46098 24-478): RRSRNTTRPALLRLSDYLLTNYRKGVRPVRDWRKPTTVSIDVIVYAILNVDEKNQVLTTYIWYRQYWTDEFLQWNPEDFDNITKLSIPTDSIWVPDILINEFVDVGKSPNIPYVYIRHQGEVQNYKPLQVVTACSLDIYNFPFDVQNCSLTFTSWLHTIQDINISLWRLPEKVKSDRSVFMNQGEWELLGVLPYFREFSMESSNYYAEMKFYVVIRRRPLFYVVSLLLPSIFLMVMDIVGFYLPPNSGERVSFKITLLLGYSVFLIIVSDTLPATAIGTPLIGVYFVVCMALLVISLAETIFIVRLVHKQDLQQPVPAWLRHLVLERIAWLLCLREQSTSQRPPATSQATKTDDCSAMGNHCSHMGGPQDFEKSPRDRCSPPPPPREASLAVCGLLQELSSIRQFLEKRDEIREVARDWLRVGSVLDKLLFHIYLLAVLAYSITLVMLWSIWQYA
Sequence of Muscarinic M3 (P20309 whole entry): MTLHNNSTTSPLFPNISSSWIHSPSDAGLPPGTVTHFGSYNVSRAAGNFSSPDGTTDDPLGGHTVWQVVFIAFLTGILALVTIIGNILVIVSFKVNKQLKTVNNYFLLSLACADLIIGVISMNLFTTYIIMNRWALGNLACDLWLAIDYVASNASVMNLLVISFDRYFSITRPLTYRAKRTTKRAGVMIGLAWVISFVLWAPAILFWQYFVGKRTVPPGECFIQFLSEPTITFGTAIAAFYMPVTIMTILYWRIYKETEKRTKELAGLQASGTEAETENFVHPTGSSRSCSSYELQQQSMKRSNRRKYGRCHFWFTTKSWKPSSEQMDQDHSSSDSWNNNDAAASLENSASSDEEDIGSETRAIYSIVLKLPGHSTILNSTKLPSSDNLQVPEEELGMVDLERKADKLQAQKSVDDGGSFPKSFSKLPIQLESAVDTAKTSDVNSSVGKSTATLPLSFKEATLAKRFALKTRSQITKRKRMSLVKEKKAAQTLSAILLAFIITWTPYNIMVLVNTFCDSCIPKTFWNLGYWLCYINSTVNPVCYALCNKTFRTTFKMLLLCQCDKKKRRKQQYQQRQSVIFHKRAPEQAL
Sequence of Serotonin (5-Hydroxytryptamine) 5-HT2B (P41595 whole entry): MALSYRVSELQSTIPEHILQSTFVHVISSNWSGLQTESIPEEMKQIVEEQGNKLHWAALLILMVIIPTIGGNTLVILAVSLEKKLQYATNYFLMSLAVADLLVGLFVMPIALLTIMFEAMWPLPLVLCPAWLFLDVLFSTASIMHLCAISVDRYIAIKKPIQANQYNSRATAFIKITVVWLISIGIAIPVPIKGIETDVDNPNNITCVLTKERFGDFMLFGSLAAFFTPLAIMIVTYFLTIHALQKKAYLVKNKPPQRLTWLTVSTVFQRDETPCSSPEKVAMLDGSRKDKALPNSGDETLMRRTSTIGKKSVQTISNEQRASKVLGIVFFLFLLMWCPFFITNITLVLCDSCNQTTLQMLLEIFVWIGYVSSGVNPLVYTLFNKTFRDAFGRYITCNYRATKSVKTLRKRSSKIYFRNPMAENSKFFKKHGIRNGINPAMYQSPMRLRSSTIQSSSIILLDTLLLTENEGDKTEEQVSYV
T2 sequence (P08172 whole entry): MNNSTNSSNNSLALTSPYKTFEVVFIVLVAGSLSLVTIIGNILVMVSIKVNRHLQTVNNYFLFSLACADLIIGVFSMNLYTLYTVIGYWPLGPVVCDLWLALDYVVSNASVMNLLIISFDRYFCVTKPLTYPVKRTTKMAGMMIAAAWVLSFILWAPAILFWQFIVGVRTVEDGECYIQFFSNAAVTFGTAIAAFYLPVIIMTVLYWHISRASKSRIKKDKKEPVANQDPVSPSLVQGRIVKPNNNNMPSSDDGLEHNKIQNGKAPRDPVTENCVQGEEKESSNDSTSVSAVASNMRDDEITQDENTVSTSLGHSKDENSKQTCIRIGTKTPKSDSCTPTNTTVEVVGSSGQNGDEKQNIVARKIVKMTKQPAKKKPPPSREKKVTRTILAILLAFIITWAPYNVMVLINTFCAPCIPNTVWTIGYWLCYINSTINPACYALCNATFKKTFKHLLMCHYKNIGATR

Regarding `CN1[C@@H]2CC[C@H]1C[C@@H](OC(=O)c1cc(Cl)cc(Cl)c1)C2` [MDL 72222], in data set [1], the “nH Historical” value is 0.80. Take `Fc1ccc(C(OCCN2CCN(CCCc3ccccc3)CC2)c2ccc(F)cc2)cc1` [GBR-12909]: in [2], the “nH Historical” value is 0.90. On to `CCN(CC)CCOC(=O)c1ccc(N)cc1` [Procaine], for which, in [3], the “stability in human plasma of standard” value was “highly unstable”.

Take `O=C(c1ccc(F)cc1)C1CCN(CCn2c(=O)[nH]c3ccccc3c2=O)CC1` [Ketanserin]: the “nH Historical” value in data set [4] is on record as 0.60. Broadly, the IC50 is the point on the concentration scale where inhibition reaches its midpoint. Consider `C[N+]1(C)CCC(OC(=O)C(c2ccccc2)c2ccccc2)CC1.[I-]` [Compound 4-DAMP, 4-DAMP], for which the half-maximal inhibitory concentration (IC50) on Muscarinic M1 [5] is 5.51 nM; at Muscarinic M1 [6] (read-out: IC50 Historical), 4.5 nM. The figures for the “nH Historical” value on Muscarinic M1 [6], at Muscarinic M2 and on Muscarinic M3 were 1.0, 1.0 and 1.10, respectively. Turning to `COc1ccc2[nH]cc(CCNC(C)=O)c2c1` [Melatonin], the “nH Historical” value on Melatonin MT1 is on record as 0.70. Take `OCCN(CCO)c1nc(N2CCCCC2)c2nc(N(CCO)CCO)nc(N3CCCCC3)c2n1` [Dipyridamole]: the solubility of standard result in data set [7] was “poorly to moderately soluble”.

In the case of `Oc1ccc2c3c1O[C@H]1c4[nH]c5ccccc5c4C[C@@]4(O)[C@@H](C2)N(CC2CC2)CC[C@]314` [Naltrindole], the “nH Historical” value on Opiate δ1 (OP1, DOP) is listed as 1.0.

These data come from article PMC4077706, “Lifting the Mask: Identification of New Small Molecule Inhibitors of Uropathogenic Escherichia coli Group 2 Capsule Biogenesis” (PLoS ONE, 2014).
